We go through 9 compounds from PubChem BioAssay (NCI).

The structures appear in SMILES notation. “And” between values parts separate entries of the source, which are not always exact repeats. Equal values may be shown once.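 A five-concentration, 48-hour dose response in 96-well plates underlies each endpoint, interpolated linearly between surrounding concentrations. At the GI50, growth is halved. TGI is the concentration that stops growth completely.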

Among the test systems are SW-620 colon; HS 578T breast; NCI-H23 lung; HCT-116 colon; TK-10 renal; SF-295 CNS; SK-MEL-28 melanoma; SNB-19 CNS; LOX IMVI melanoma; MCF7 breast.
What all share (assay): DTP human tumour cell line panel, 48 h

Usually GI50 stands for the concentration giving 50% growth inhibition. By TGI is commonly meant the concentration at which net growth stops. `COc1ccc(S(=O)(=O)N2CCNCC2)cc1OC`: the GI50 in the experiment with SW-620 colon, with HS 578T breast, with NCI-H23 lung, with HCT-116 colon, in the experiment on TK-10 renal and with SF-295 CNS was more than 100 µM in each case. Moreover, the GI50 in the experiment with SK-MEL-28 melanoma, in the experiment with SNB-19 CNS, in the experiment on LOX IMVI melanoma and in the experiment with MCF7 breast was more than 100 µM each time. For the same compound, the TGI with SW-620 colon, with HS 578T breast, with NCI-H23 lung, with HCT-116 colon, with TK-10 renal and in the experiment with SF-295 CNS was more than 100 µM each time. Moreover, the TGI with SK-MEL-28 melanoma, in the experiment on SNB-19 CNS, with LOX IMVI melanoma and in the experiment with MCF7 breast was more than 100 µM throughout.

Consider `N#CCNC(=O)c1ccc(-c2ccnc(Nc3ccc(N4CCOCC4)cc3)n2)cc1`, for which the GI50 with SW-620 colon was 3.97 µM and 3.46 µM; with HS 578T breast, 0.506 µM and 0.42 µM; with NCI-H23 lung, 2.71 µM and 1.87 µM; in the experiment on HCT-116 colon it was 1.49 µM and 1.19 µM; with TK-10 renal it was 0.873 µM and 0.607 µM; in the experiment with SF-295 CNS it was 4.56 µM and 1.94 µM. In addition, the GI50 in the experiment on SK-MEL-28 melanoma was 4.49 µM and 2.56 µM; in the experiment with SNB-19 CNS it was 7.23 µM and 10.2 µM; in the experiment with LOX IMVI melanoma, 1.74 µM and 1.35 µM; in the experiment with MCF7 breast, 1.78 µM and 1.54 µM. Besides, the TGI with SW-620 colon is more than 100 µM; in the experiment on HS 578T breast, 4.86 µM and 12.9 µM; in the experiment on NCI-H23 lung, > 10 µM and 38.4 µM; in the experiment with HCT-116 colon, more than 24.8 µM; in the experiment with TK-10 renal, 8.31 µM and 4.58 µM; in the experiment with SF-295 CNS, > 10 µM and 16.6 µM. The TGI in the experiment on SK-MEL-28 melanoma is > 10 µM and 20.3 µM; in the experiment on SNB-19 CNS, > 10 µM and 78.4 µM; with LOX IMVI melanoma, more than 44.9 µM; in the experiment on MCF7 breast it was > 10 µM and 21.4 µM.

As for `C=CCN(CC=C)C(=O)[C@H](CC)[C@@H]1CC[C@@H](C)[C@@H]([C@H](C)[C@@H](O)[C@@H](C)C(=O)[C@H](CC)C2O[C@]3(C=C[C@@H](O)[C@]4(CC[C@@](C)([C@H]5CC[C@](O)(CC)[C@H](C)O5)O4)O3)[C@H](C)C[C@@H]2C)O1` (stereo partly drawn), the GI50 was 2.97 µM in the experiment on SW-620 colon; 2.22 µM in the experiment on HS 578T breast; 2.48 µM in the experiment on NCI-H23 lung; 2.81 µM in the experiment with HCT-116 colon; 3.65 µM in the experiment with TK-10 renal; 1.87 µM in the experiment with SF-295 CNS. In addition, the GI50 with SK-MEL-28 melanoma is 4.45 µM; in the experiment on SNB-19 CNS it was 3.08 µM; in the experiment on LOX IMVI melanoma it was 1.52 µM; in the experiment on MCF7 breast, 1.95 µM. Moreover, the TGI is 10.6 µM in the experiment on SW-620 colon; 6.27 µM with HS 578T breast; 6.93 µM in the experiment with NCI-H23 lung; 10.1 µM in the experiment on HCT-116 colon; more than 100 µM in the experiment with TK-10 renal; 5.23 µM with SF-295 CNS. For the same compound, the TGI in the experiment with SK-MEL-28 melanoma was 21.6 µM; with SNB-19 CNS, more than 100 µM; with LOX IMVI melanoma, 3.22 µM; in the experiment on MCF7 breast it was 5.14 µM.

Consider `O=[N+]([O-])c1cc(Cc2cc([N+](=O)[O-])c3cccnc3c2O)c(O)c2ncccc12`, for which the TGI in the experiment on SW-620 colon is more than 67.9 µM; in the experiment with HS 578T breast it was 52.1 µM; in the experiment on NCI-H23 lung, more than 100 µM; in the experiment with HCT-116 colon, 16.9 µM; in the experiment with TK-10 renal it was 48.3 µM; in the experiment with SF-295 CNS it was 37.2 µM. The TGI is 37.4 µM in the experiment with SK-MEL-28 melanoma, 51.2 µM in the experiment with SNB-19 CNS, more than 66.2 µM in the experiment on LOX IMVI melanoma and 29.6 µM in the experiment on MCF7 breast.

Consider `COc1cc2c(cc1NC(=O)C(Cl)Cl)-c1ccc(NC(=O)C(Cl)Cl)cc1C2`, for which the GI50 is 0.264 µM in the experiment with SW-620 colon; 0.953 µM in the experiment with HS 578T breast; 2.52 µM with NCI-H23 lung; 0.136 µM with HCT-116 colon; 0.687 µM with TK-10 renal; 0.371 µM in the experiment on SF-295 CNS. In addition, the GI50 with SK-MEL-28 melanoma was 0.611 µM; with SNB-19 CNS it was 0.461 µM; in the experiment with LOX IMVI melanoma it was 5.43 µM; with MCF7 breast, 0.391 µM. In addition, the TGI with SW-620 colon was 0.935 µM; in the experiment on HS 578T breast it was more than 34.7 µM; in the experiment on NCI-H23 lung, 12.5 µM; in the experiment on HCT-116 colon it was 0.271 µM; in the experiment on TK-10 renal, 2.53 µM; in the experiment on SF-295 CNS it was 1.12 µM. The TGI in the experiment with SK-MEL-28 melanoma is 1.76 µM; in the experiment with SNB-19 CNS it was 2.06 µM; in the experiment on LOX IMVI melanoma it was 18.1 µM; with MCF7 breast, 1.82 µM.

In the case of `O=C(c1ccco1)c1c(C(F)(F)F)n([O-])c2cc(F)c(F)cc2[n+]1=O`, the TGI in the experiment on SW-620 colon amounted to 0.0132 µM; with HS 578T breast, 2.63 µM; in the experiment with NCI-H23 lung, 1.86 µM; with HCT-116 colon, 0.386 µM; in the experiment with TK-10 renal, 1.02 µM; in the experiment with SF-295 CNS it was 2.17 µM. Also, the TGI was 2.58 µM in the experiment on SK-MEL-28 melanoma, 2.35 µM in the experiment on SNB-19 CNS, 0.459 µM in the experiment with LOX IMVI melanoma and 2.62 µM in the experiment with MCF7 breast. Moreover, the GI50 is 0.655 µM in the experiment with HS 578T breast; 0.497 µM in the experiment on NCI-H23 lung; 0.149 µM with HCT-116 colon; 0.204 µM in the experiment on TK-10 renal; 0.737 µM in the experiment with SF-295 CNS; 0.416 µM in the experiment with SK-MEL-28 melanoma. For the same compound, the GI50 is 1.02 µM with SNB-19 CNS and 0.108 µM with MCF7 breast.

In the case of `CN(C)c1nc(N)c(C#N)c(C#N)c1C#N`, the TGI in the experiment on SW-620 colon, in the experiment with HS 578T breast, with NCI-H23 lung, in the experiment on HCT-116 colon, in the experiment with TK-10 renal and in the experiment on SF-295 CNS was more than 10 µM throughout. Further, the TGI with SK-MEL-28 melanoma, in the experiment on SNB-19 CNS, in the experiment with LOX IMVI melanoma and in the experiment on MCF7 breast was more than 10 µM throughout.

Consider `Cc1cc2c(c(=O)o1)C1=S(SC(c3ccccc3)=C1)S2` (stereo not drawn), for which the TGI with SW-620 colon was more than 100 µM; in the experiment on HS 578T breast, 96 µM; in the experiment with NCI-H23 lung it was more than 100 µM; in the experiment with HCT-116 colon, 60.6 µM; with TK-10 renal, 87.4 µM; with SF-295 CNS, 88 µM. In addition, the TGI in the experiment on SK-MEL-28 melanoma, in the experiment with SNB-19 CNS, with LOX IMVI melanoma and in the experiment with MCF7 breast was more than 100 µM in each case.

As for `O=c1[nH]c(=S)[nH]c(-c2ccccc2)c1Cc1c(O)ccc2ccccc12`, the TGI was more than 100 µM in the experiment on SW-620 colon; more than 100 µM in the experiment with HS 578T breast; 90.6 µM in the experiment on NCI-H23 lung; 74.4 µM in the experiment on HCT-116 colon; 59.3 µM in the experiment on TK-10 renal; more than 100 µM in the experiment with SF-295 CNS. Besides, the TGI in the experiment on SK-MEL-28 melanoma, with SNB-19 CNS, in the experiment with LOX IMVI melanoma and in the experiment with MCF7 breast was more than 100 µM throughout.
